Measurements: publication PMC4116524, “A virtual screen identified C96 as a novel inhibitor of phosphatidylinositol 3-kinase that displays potent preclinical activity against multiple myeloma in vitro and in vivo” (Oncotarget, 2014)

How the values were obtained:
Format in all cases: cell-based
[1] = tested on: AKT phosphorylation in LP1 and JJN3 cells; test: IGF-1-stimulated AKT phosphorylation, immunoblotting (Figure 3A); conditions: 100 μM, 2 hrs, IGF-1 15 min
Experimental: To elucidate this specificity, we first evaluated its effects on IGF-1R because IGF-1R as a receptor tyrosine kinase activates PI3K in the presence of IGF-1. To exclude the potential effects of C96 on IGF-1 signaling, LP1 and JJN3 cells were starved overnight followed by C96 or S14161 treatment for 2 hrs, and IGF-1 stimulation for 15 min. As expected, IGF-1 triggered AKT phosphorylation but it was suppressed by both C96 and the proven PI3K inhibitor S14161 without affecting total AKT expression (Figure 3A). […] Next, we evaluated other kinases including non-receptor kinase c-Src and a PI3K parallel kinase ERK which transduces external cellular signals. Both LP1 and JJN3 cells were treated with C96 at increasing concentrations that inhibited AKT and mTOR activation (Figure 2C).
Figure 3 C96 inhibits AKT but not IGF-1R, ERK or c-Src kinase activation (A) LP1 and JJN3 cells were starved overnight, then treated with 100 (μM of C96 or S14161 for 2 hrs, followed by IGF-1 (100 ng/mL) for 15 min. After incubation, cells were harvested and the expression of p-AKT, p-IGF-1R, total AKT (T-AKT), and IGF-1R proteins were detected by immunoblotting. (B) LP1 and JJN3 were treated with C96 at indicated concentrations for 24 hrs followed by immunoblotting assay for the expression of p-Src, c-Src, p-ERK, and ERK. GAPDH was used as a loading control. […]

[2] = tested on: phosphorylation of mTOR, p70S6K and 4E-BP1 in LP1, OPM2 and JJN3 cells; test: mTOR signaling pathway, immunoblotting; conditions: LP1, OPM2, JJN3, 24 hrs, concentration-dependent
Experimental: Figure 2 C96 inhibits AKT and mTOR signaling (A) LP1 and OPM2 were starved overnight, then treated with C96 at the indicated concentrations, or 100 μM of S14161 for 2 hrs, followed by IGF-1 (100 ng/mL) for 15 min. Cells were collected for the analysis of the expression of p-AKT and total AKT (T-AKT) by immunoblotting. […]
The PI3K/AKT plays a critical role in regulating a myriad of downstream effectors, of which the most prominent ones are mTOR/p70S6K/4E-BP1. […] To examine whether PI3K inhibition led to deregulation of the mTOR signaling pathway, we further measured the changes of mTOR, p70S6K and 4E-BP1 in MM cell lines LP1, OPM2, and JJN3 in the presence of C96.
Cells were treated with or without C96 for 24 hrs before being applied to lysate preparation in a lysis buffer (50 mM Tris-HCI, pH 7.4, 1% NP-40, 0.5% Na-deoxycholate, and 0.1% SDS, 150 mM NaCl, 2 mM EDTA, 2 mM Na3VO4, and 5 mM NaF). […] All immunoblotting signals were further analyzed with Quality One Quality One software (Bio-Rad, Berkeley, CA, USA).

[3] = tested on: MM cell lines LP1, OPM2, JJN3, OCI-My5, RPMI-8226, U266, KMS11; test: Growth inhibition assay (MTT); conditions: panel of MM cell lines, within 72 hrs
Experimental: MM cells were dispensed in 96-well plates at a density of 8×10^3 cells per well and treated with increasing concentrations of C96 for 72 hrs, and the growth inhibitory effect of C96 on MM cells was assessed by an MTT assay as reported previously. To show the effect of C96 on cell growth in the presence of growth factor IGF-1, MM cells were first maintained in IMDM media containing 0.5% FBS for 12 hrs, followed by C96 treatment alone or in combination with 100 ng/mL of IGF-1. Cells were then incubated for another 24 hrs, relative cell proliferation was analyzed by an MTT assay. […]
www.impactjournals.com/oncotarget/ Oncotarget, Supplementary Materials 2014 SUPPLEMENTARY FIGURES AND TABLE
Supplementary Figure S1: C96 inhibits multiple myeloma cell proliferation. MM cell lines were treated with C96 with indicated concentrations for 72 hrs, followed by MTT assay. […]

## O=C1NC(=O)C(=CC=Cc2cccs2)C(=O)N1 [C96, 5-(3-(2-thienyl)-2-propen-1-ylidene)-2,4,6(1H,3H,5H)-pyrimidinetrione]
[1]
  AKT phosphorylation triggered by IGF-1: suppressed
[2]
  phosphorylation levels of mTOR, p70S6K and 4E-BP1: downregulated
[3]
  cell proliferation and viability (MTT): suppressed cell proliferation and reduced cell viability
